Paper PMC4556985, “Inhibitors of ORAI1 Prevent Cytosolic Calcium-Associated Injury of Human Pancreatic Acinar Cells and Acute Pancreatitis in 3 Mouse Models” (Gastroenterology, 2015)

Target: T1, ORAI1 (Homo sapiens, UniProt Q96D31)
T1 construct: with STIM1 (human, co-expressed)
Test: whole-cell patch clamp of ICRAC in HEK […] cells stably expressing hORAI1/hSTIM1
Type: cell-based

T1 sequence (Q96D31 whole entry): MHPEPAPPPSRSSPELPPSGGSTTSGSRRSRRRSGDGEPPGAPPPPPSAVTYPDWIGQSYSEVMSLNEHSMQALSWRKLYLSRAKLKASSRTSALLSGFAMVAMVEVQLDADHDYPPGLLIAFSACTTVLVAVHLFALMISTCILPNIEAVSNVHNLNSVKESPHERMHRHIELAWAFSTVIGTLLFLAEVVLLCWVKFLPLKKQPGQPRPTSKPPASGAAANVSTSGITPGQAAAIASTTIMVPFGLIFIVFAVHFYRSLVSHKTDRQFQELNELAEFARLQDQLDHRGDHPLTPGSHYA
T1 sequence (Q13586 23-685 partner): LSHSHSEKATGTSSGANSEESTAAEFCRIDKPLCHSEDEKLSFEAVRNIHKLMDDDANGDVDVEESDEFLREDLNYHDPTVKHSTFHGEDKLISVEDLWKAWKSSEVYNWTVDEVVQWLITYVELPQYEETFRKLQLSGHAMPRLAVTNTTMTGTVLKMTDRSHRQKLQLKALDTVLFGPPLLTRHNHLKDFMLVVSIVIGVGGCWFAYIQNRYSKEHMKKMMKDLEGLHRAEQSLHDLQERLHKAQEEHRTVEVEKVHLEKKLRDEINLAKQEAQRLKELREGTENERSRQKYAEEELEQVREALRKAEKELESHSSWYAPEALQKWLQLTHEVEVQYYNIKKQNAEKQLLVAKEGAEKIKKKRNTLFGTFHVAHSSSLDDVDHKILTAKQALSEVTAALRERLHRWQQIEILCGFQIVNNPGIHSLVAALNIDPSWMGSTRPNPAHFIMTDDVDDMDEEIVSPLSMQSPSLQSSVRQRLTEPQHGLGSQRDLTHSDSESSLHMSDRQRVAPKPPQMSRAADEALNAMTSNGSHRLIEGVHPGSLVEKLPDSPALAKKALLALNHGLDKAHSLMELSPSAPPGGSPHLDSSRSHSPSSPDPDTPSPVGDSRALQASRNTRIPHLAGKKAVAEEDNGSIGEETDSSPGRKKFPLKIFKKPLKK

IC50: ~100 nM
SMILES: Cc1cccc(F)c1C(=O)Nc1cnc(-c2cc3c(cc2Cl)OC(F)(F)O3)cn1 [CM_128]
